Measurements reported in patent US20260306460A1, “COMPOSITION FOR REMOVING AND INHIBITING SENESCENT CELLS, AND USES THEREOF” (LIFECEUTIX CO., LTD., priority 2023, published 2026).

Columns and labels:
Format in all cases: in vivo, mouse
[1] = tested on: carbon tetrachloride-induced liver fibrosis mice; assay: Carbon tetrachloride-induced liver fibrosis mice, Example 31, Table 57; settings: CCl4-induced liver fibrosis mice, untreated = 100%
In short: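 Mice with induced hepatic fibrosis received either the test compound or, as controls, an equal volume of vehicle solution alone. Once dosing ended, liver tissue was harvested and total RNA was isolated. cDNA was synthesized from this RNA, and quantitative RT-PCR was run on it to measure hepatic mRNA levels of the fibrosis- and senescence-related genes.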

[2] = tested on: doxorubicin-induced aged C57BL6J mice; assay: Thrombosis (Serpine1, Plau, TIMP1 mRNA, tail bleeding time) in doxorubicin-aged mice, Example 22-10, Table 39; settings: for Plau mRNA / Serpine1 mRNA / TIMP1 mRNA: qRT-PCR, doxorubicin-induced aged mice, amount after aging calculated as 100%; for Tail amputation bleeding time: tail incised 5 mm from the tip, saline 37° C., untreated 51 (±3.6)
Experimental: (§1) Eight-week-old male C57BL6J mice (KRIBB Laboratory Animal Resource Center) were acclimated to the experimental environment for one week. Afterwards, the anticancer agent doxorubicin was administered intraperitoneally at a concentration of 10 mg/kg, inducing aging for more than 10 days. The aging-induced mice were randomly assigned to experimental and control groups. LX-403 was mixed with a 10% ethanol solution of PEG400 and administered orally at a concentration of 25 mg/kg or intradermally at a concentration of 1 μM for 21 days. LX-1801 was mixed in distilled water with 4% DMSO, 30% PEG300, and 5% Tween80 and administered intradermally at a concentration of 0.4 μM daily for 21 days. LX-2001 was mixed in PBS and administered intradermally at a concentration of 2 μM daily for 21 days. LX-2002 was mixed in distilled water with 4% DMSO, 30% PEG300, and 5% Tween80 and administered intradermally at a concentration of 2 μM daily for 21 days. […] LX-2005 was mixed in distilled water with 4% DMSO, 30% PEG300, and 5% Tween80 and administered intradermally at a concentration of 90 μM daily for 21 days. LX-2007 was mixed in distilled water with 4% DMSO, 30% PEG300, and 5% Tween80 and administered intradermally at a concentration of 90 μM daily for 21 days. […] LX-3002 was mixed in distilled water with 4% DMSO, 30% PEG300, and 5% Tween80 and administered orally at a concentration of 10 mg/kg daily for 21 days. […] LX-5411 was mixed in 5% phosphate-buffered saline (PBS) and administered orally at a concentration of 10 mg/kg daily for 21 days or intradermally at a concentration of 3 μM. LX-5701 was mixed in PBS and administered orally at a concentration of 360 mg/kg daily for 21 days. LX-6807 was mixed in saline and administered intraperitoneally at a concentration of 1 mg/kg daily for 21 days. The control group received only the solution in the same volume. After the end of drug administration, the methods described in each example below were performed.
Using cDNA synthesized using the same method as in Example 7-6 of WO2023-085787 A1, qRT-PCR was performed and analyzed for the liver-produced senescence-associated secretory factor (SASP) and hemostasis-related factors like Serpine1 (PAI1), Plau (Urokinase), and TIMP1. To determine whether the treatment affects in vivo hemostasis, tail bleeding time was analyzed in mice induced to age by chemotherapy. Specifically, for tail bleeding analysis, mice were anesthetized, and the tail was incised 5 mm from the tip with a razor blade. The bleeding tail was then placed in a 15 ml test tube containing saline preheated to 37° C., and the time until blood flow stopped was measured. The bleeding time was determined when bleeding stopped for 10 seconds. […] The qPT-PCR results were compared with the amounts of each factor after aging was induced, calculating the amount of each factor as 100% and then treating it with the test compound.

[3] = tested on: doxorubicin-induced aged C57BL6J mice; assay: Bone marrow function (CAFC assay) in doxorubicin-aged mice, Example 22-12, Table 41; settings: bone marrow of doxorubicin-induced aged mice, 5 weeks of culture; untreated 1.8 (±0.1)
Experimental: as §1
Damage to the immune system, including the bone marrow, after chemotherapy is known to induce inflammatory responses and contribute to drug resistance and adverse effects. To analyze the function of bone marrow hematopoietic cells in mice induced to age by the anticancer agent, a cobblestone-area-forming-cell (CAFC) assay was performed. Specifically, bone marrow cells (BMCs) were collected from the femurs and tibias of mice, and BM-MNCs (mono-nuclear cells) were cultured in MethoCult™ GF M3434 methylcellulose medium (Stem Cell™ Technologies Inc, Canada). FBMD-1 stromal cells were seeded in each well of a 96-well plate to prepare a support cell stromal layer. […] After 5 weeks of culture, CAFCs were counted using an optical microscope.

Molecule | Liver p16 mRNA [1] | Col1a1 mRNA [1] | Plau mRNA [2] | Serpine1 mRNA [2] | TIMP1 mRNA [2] | Tail amputation bleeding time [2] | CAFCs/10^5 BMCs [3]
O=C(C(C[N+](=O)[O-])=NO)N1CCN(C(c2ccc(Cl)cc2)c2ccc(Cl)cc2)CC1 [LX-403] | 51 (±3.8) % | 48 (±5.8) % | – | – | – | – | –
S=C(N/N=C1\CCCc2cccnc21)N1CCN(c2ccccn2)CC1 [LX-801] | 57 (±9.3) % | 63 (±11.5) % | – | – | – | – | –
C[C@@H]1CC[C@@]23C[C@H](O)C(=O)[C@@]2(O)[C@]1(C)[C@H](OC(=O)CCl)C[C@@H](C1=CCn2c(=O)n(-c4ccccc4)c(=O)n2C1)[C@@H]3C [LX-1801, (2S,3aS,4S,5R,7R,8S,8aS,11R)-7-(1,3-Dioxo-2-phenyl-2,3,5,8-tetrahydro-1H-[1,2,4]triazolo[1,2-a]pyridazin-6-yl)-2,3a-dihydroxy-4,8,11-trimethyl-3-oxooctahydro-1H-4,8a-propanoazulen-5-yl 2-Chloroacetate] | 55 (±9.8) % | 58 (±7.9) % | – | – | – | – | –
CCCC\C=C/C=C/C=C\CCCCCCCC(=O)O [LX-2707, Punicic acid] | – | – | 65 (±1.8) % | 52 (±3.5) % | 46 (±1.5) % | 80 (±4.3) sec | 2.7 (±0.2) CAFCs/10^5 BMCs
COC(=O)[C@H]1Cc2c([nH]c3ccccc23)[C@H](c2ccc(S(C)(=O)=O)cc2)N1C(=O)CCl [LX-5401, methyl (1S,3R)-2-(2-chloroacetyl)-1-(4-(methylsulfonyl)phenyl)-2,3,4,9-tetrahydro-1H-pyrido[3,4-b]indole-3-carboxylate] | 61 (±13.2) % | 72 (±5.9) % | – | – | – | – | –
C#CC(=O)N1[C@@H](CCCC)Cc2cc(OC)ccc2[C@@H]1c1ccc(NC23CC4CC(CC(C4)C2)C3)cc1 [LX-5411] | 53 (±9.9) % | 43 (±16.1) % | – | – | – | – | –
O=C1C2CCN(CC2)C1CNC(=O)C(F)(F)F (stereo not drawn) [LX-5701] | – | – | 53 (±13.9) % | 45 (±20.1) % | 53 (±11.2) % | 89 (±15.2) sec | 3.3 (±0.2) CAFCs/10^5 BMCs
Cc1cccc([C@H](C)c2cnc[nH]2)c1C [LX-6807, Dexmedetomidine] | – | – | 45 (±3.6) % | 31 (±1.9) % | 59 (±1.9) % | 93 (±6.4) sec | 3.5 (±0.2) CAFCs/10^5 BMCs
Tocofersolan [LX-3001] | – | – | 69 (±2.2) % | 76 (±2.1) % | 73 (±3.1) % | 72 (±2.6) sec | 2.1 (±0.2) CAFCs/10^5 BMCs
